# PubChem BioAssay AID1963963 (Molecular Pharmacology Branch, DTP, NCI, 2024)
# Tested on: 958667-338-R-J2-PDC tumor spheroids viability
# Assay: Anticancer human tumor 958667-338-R-J2-PDC patient-derived colon adenocarcinoma cell line growth inhibition [PI3K]
# Conditions: spheroids with HUVEC and MSC; for IC50: curve of first compound; for viability, T/C: stronger effect = lower value
# Outline: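 Viability of mixed-cell spheroids was determined after exposure to pairwise combinations, one partner being inavolisib, alpelisib, duvelisib or copanlisib. Highest tested concentration matched clinical Cmax where known and 10 microM where not, descending in half-log steps.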
# [1] = second compound 0.00316 µM, first compound 0.0316 µM
# [2] = second compound 0.00316 µM, first compound 0.1 µM
# [3] = second compound 0.01 µM, first compound 0.0316 µM
# [4] = second compound 0.01 µM, first compound 0.1 µM
# [5] = second compound 0.0316 µM, first compound 0.0316 µM
# [6] = second compound 0.0316 µM, first compound 0.1 µM
# [7] = second compound 0.1 µM, first compound 0.0316 µM
# [8] = second compound 0.1 µM, first compound 0.1 µM
# [9] = second compound 0.316 µM, first compound 0.0316 µM
# [10] = second compound 0.316 µM, first compound 0.1 µM
# [11] = second compound 1 µM, first compound 0.0316 µM
# [12] = second compound 1 µM, first compound 0.1 µM
# 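Note: spheroids exposed to compounds for seven days before readout.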
smiles,measurement,setting,value
CC(C)n1nc(-c2ccc3oc(N)nc3c2)c2c(N)ncnc21 + CC(Nc1ccc2c(c1)OCCn1cc(N3C(=O)OCC3C(F)F)nc1-2)C(N)=O,IC50,second compound 0.00316 µM,65.1 nM
same,IC50,second compound 0.01 µM,64.9 nM
same,IC50,second compound 0.0316 µM,43.6 nM
same,IC50,second compound 0.1 µM,52.5 nM
same,IC50,second compound 0.316 µM,28.7 nM
same,IC50,second compound 1 µM,2.71 nM
same,"viability, T/C","second compound 0.00316 µM, first compound 0.000316 µM",103%
same,"viability, T/C","second compound 0.00316 µM, first compound 0.001 µM",120%
same,"viability, T/C","second compound 0.00316 µM, first compound 0.00316 µM",92.5%
same,"viability, T/C","second compound 0.00316 µM, first compound 0.01 µM",91.7%
same,"viability, T/C",[1],80.8%
same,"viability, T/C",[2],33.3%
same,"viability, T/C","second compound 0.01 µM, first compound 0.000316 µM",109%
same,"viability, T/C","second compound 0.01 µM, first compound 0.001 µM",109%
same,"viability, T/C","second compound 0.01 µM, first compound 0.00316 µM",95.9%
same,"viability, T/C","second compound 0.01 µM, first compound 0.01 µM",94.7%
same,"viability, T/C",[3],71%
same,"viability, T/C",[4],37.1%
same,"viability, T/C","second compound 0.0316 µM, first compound 0.000316 µM",99.5%
same,"viability, T/C","second compound 0.0316 µM, first compound 0.001 µM",74.3%
same,"viability, T/C","second compound 0.0316 µM, first compound 0.00316 µM",81.5%
same,"viability, T/C","second compound 0.0316 µM, first compound 0.01 µM",65%
same,"viability, T/C",[5],64.5%
same,"viability, T/C",[6],32.9%
same,"viability, T/C","second compound 0.1 µM, first compound 0.000316 µM",79.3%
same,"viability, T/C","second compound 0.1 µM, first compound 0.001 µM",86.9%
same,"viability, T/C","second compound 0.1 µM, first compound 0.00316 µM",85.9%
same,"viability, T/C","second compound 0.1 µM, first compound 0.01 µM",75.3%
same,"viability, T/C",[7],68%
same,"viability, T/C",[8],28.7%
same,"viability, T/C","second compound 0.316 µM, first compound 0.000316 µM",58.2%
same,"viability, T/C","second compound 0.316 µM, first compound 0.001 µM",59.8%
same,"viability, T/C","second compound 0.316 µM, first compound 0.00316 µM",66.2%
same,"viability, T/C","second compound 0.316 µM, first compound 0.01 µM",65.1%
same,"viability, T/C",[9],48.9%
same,"viability, T/C",[10],21.8%
same,"viability, T/C","second compound 1 µM, first compound 0.000316 µM",65.7%
same,"viability, T/C","second compound 1 µM, first compound 0.001 µM",53.8%
same,"viability, T/C","second compound 1 µM, first compound 0.00316 µM",45.6%
same,"viability, T/C","second compound 1 µM, first compound 0.01 µM",44.3%
same,"viability, T/C",[11],35.4%
same,"viability, T/C",[12],23.5%
CC1(C)CCC(CN2CCN(c3ccc(C(=O)NS(=O)(=O)c4ccc(NCC5CCOCC5)c([N+](=O)[O-])c4)c(Oc4cnc5[nH]ccc5c4)c3)CC2)=C(c2ccc(Cl)cc2)C1 + CC(Nc1ccc2c(c1)OCCn1cc(N3C(=O)OCC3C(F)F)nc1-2)C(N)=O,IC50,second compound 0.00316 µM,> 10000 nM
same,IC50,second compound 0.01 µM,9010 nM
same,IC50,second compound 0.0316 µM,7320 nM
same,IC50,second compound 0.1 µM,6410 nM
same,IC50,second compound 0.316 µM,4700 nM
same,IC50,second compound 1 µM,> 10000 nM
same,"viability, T/C",[1],92.8%
same,"viability, T/C",[2],116%
same,"viability, T/C","second compound 0.00316 µM, first compound 0.316 µM",95.6%
same,"viability, T/C","second compound 0.00316 µM, first compound 1 µM",111%
same,"viability, T/C","second compound 0.00316 µM, first compound 3.16 µM",102%
same,"viability, T/C","second compound 0.00316 µM, first compound 10 µM",69.5%
same,"viability, T/C",[3],91.6%
same,"viability, T/C",[4],89.3%
same,"viability, T/C","second compound 0.01 µM, first compound 0.316 µM",91.2%
same,"viability, T/C","second compound 0.01 µM, first compound 1 µM",87.3%
same,"viability, T/C","second compound 0.01 µM, first compound 3.16 µM",86.3%
same,"viability, T/C","second compound 0.01 µM, first compound 10 µM",46.4%
same,"viability, T/C",[5],84.2%
same,"viability, T/C",[6],118%
same,"viability, T/C","second compound 0.0316 µM, first compound 0.316 µM",86%
same,"viability, T/C","second compound 0.0316 µM, first compound 1 µM",97.9%
same,"viability, T/C","second compound 0.0316 µM, first compound 3.16 µM",86.9%
same,"viability, T/C","second compound 0.0316 µM, first compound 10 µM",36.1%
same,"viability, T/C",[7],72%
same,"viability, T/C",[8],79.7%
same,"viability, T/C","second compound 0.1 µM, first compound 0.316 µM",74.3%
same,"viability, T/C","second compound 0.1 µM, first compound 1 µM",77.4%
same,"viability, T/C","second compound 0.1 µM, first compound 3.16 µM",96.6%
same,"viability, T/C","second compound 0.1 µM, first compound 10 µM",31%
same,"viability, T/C",[9],71.7%
same,"viability, T/C",[10],59.5%
same,"viability, T/C","second compound 0.316 µM, first compound 0.316 µM",67.5%
same,"viability, T/C","second compound 0.316 µM, first compound 1 µM",71.8%
same,"viability, T/C","second compound 0.316 µM, first compound 3.16 µM",70.1%
same,"viability, T/C","second compound 0.316 µM, first compound 10 µM",15.5%
same,"viability, T/C",[11],49%
same,"viability, T/C",[12],60.7%
same,"viability, T/C","second compound 1 µM, first compound 0.316 µM",63%
same,"viability, T/C","second compound 1 µM, first compound 1 µM",63.4%
same,"viability, T/C","second compound 1 µM, first compound 3.16 µM",60.7%
same,"viability, T/C","second compound 1 µM, first compound 10 µM",35.5%
